The values that follow come from US4876243A, “Vasopressin compounds” (Smithkline Beckman Corporation, priority 1987, dated 1989).

The target in assay [1] is T1, V2-vasopressin receptors (Sus scrofa, UniProt P32307).
T1 construct: in the medullary tissue of hog kidneys; from tissue; host or cells: hog kidney medullary tissue
In words: inhibition of adenylate cyclase activation by vasopressin in the medullary tissue of hog kidneys. The assay is classed as biochemical. To be noted: hog kidney medullary tissue, vasopressin-activated adenylate cyclase; read-out: Pig V2 Ki. As for the experimental part: (§1) Antagonistic activity at the V2 -vasopressin receptors is determined in a protocol which determines in vitro activity in pig tissue or in vivo diuretic activity in the hydropenic rat (ED300 μg/kg). These procedures are described in the literature. F. Stassen et al., 1st International Conference on Diuretics, Miami, Fla., March (1984).
Antagonistic activity at the V1 -vasopressin receptors is determined in a protocol which measures the reversal of the vasopressin induced contraction of rat thoracic aorta tissue. This is expressed as KB (nM) in the table below. […] V2 -vasopressin antagonism is determined as receptor binding ability measured by inhibition of 3H-LVP binding (KB as nM), by inhibition of adenylate cyclase activation by vasopressin in the medullary tissue of hog kidneys (Ki as nM) or in vivo in the […] rat protocol (ED300 μg/kg). These procedures are described in the literature: F. Stassen et al., J. Pharmacology and Experimental Therapeutics, 223 50 (1982).

Assay [2] has as its target T1, V2-vasopressin receptors. In words: receptor binding ability measured by inhibition of 3H-LVP binding. To be noted: read-out: Pig V2 KB. As for the experimental part:
as §1
(§2) Antagonistic activity at the V1 -vasopressin receptors is determined in a protocol which measures the reversal of the vasopressin induced contraction of rat thoracic aorta tissue. This is expressed as KB (nM) in the table below. Such anti-pressor activity is confirmed in a similar in vitro protocol using the plasma membranes of rat liver. V2 -vasopressin antagonism is determined as receptor binding ability measured by inhibition of 3H-LVP binding (KB as nM), by inhibition of adenylate cyclase activation by vasopressin in the medullary tissue of hog kidneys (Ki as nM) or in vivo in the […] rat protocol (ED300 μg/kg). These procedures are described in the literature: F. Stassen et al., J. Pharmacology and Experimental Therapeutics, 223 50 (1982).

The target of a further assay is T2, V1-vasopressin receptors (Rattus norvegicus, UniProt P30560).
T2 construct: vasopressin induced contraction of rat thoracic aorta tissue; from tissue; host or cells: rat thoracic aorta tissue
T2 sequence (P30560 whole entry): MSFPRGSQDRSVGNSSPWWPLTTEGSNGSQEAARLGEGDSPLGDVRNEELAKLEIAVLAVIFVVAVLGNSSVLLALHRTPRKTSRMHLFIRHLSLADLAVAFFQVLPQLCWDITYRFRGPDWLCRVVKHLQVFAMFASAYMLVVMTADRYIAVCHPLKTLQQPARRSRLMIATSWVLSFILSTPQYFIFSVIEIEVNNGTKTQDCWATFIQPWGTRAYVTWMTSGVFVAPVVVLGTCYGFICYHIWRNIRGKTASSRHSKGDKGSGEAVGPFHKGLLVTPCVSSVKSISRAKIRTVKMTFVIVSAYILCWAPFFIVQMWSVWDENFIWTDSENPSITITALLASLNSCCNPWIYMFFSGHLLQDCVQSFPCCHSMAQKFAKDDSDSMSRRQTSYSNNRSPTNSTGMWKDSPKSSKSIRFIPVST
In words: reversal of the vasopressin induced contraction of rat thoracic aorta tissue. As for the experimental part:
as §2

*1 amine or outer side, *2 acyl side, *3 side chain or, on linkers, in order; H or OH if unused. Where a SMILES comes first, the peptide text is derived from it. Bridges are numbered along the chain shown (N, C = ends). [ ]: non-standard residue; d: D form. X1 = O=C(CC1(S[*:2])CCCCC1)[*:1]; αMeV = CC(C)[C@](C)(N)C(=O)O; Aib = CC(C)(N)C(=O)O

T1 sequence (P32307 whole entry): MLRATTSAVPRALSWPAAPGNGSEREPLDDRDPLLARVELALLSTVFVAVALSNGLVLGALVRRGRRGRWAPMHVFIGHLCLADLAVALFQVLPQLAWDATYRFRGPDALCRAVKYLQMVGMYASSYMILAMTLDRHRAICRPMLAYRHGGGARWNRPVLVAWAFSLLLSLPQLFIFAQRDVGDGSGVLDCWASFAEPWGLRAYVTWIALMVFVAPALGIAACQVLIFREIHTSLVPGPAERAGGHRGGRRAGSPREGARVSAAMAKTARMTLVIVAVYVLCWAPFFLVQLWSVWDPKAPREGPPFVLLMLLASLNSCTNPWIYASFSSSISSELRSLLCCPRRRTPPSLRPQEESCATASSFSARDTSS

In general, Ki refers to a dissociation constant, usually derived from enzyme kinetics or from competition with a known ligand. With `CCOc1ccc(C[C@H]2NC(=O)CC3(CCCCC3)SSC[C@@H](C(=O)N3CCC[C@H]3C(=O)N[C@@H](CCCNC(=N)N)C(N)=O)NC(=O)[C@H](CC(N)=O)NC(=O)C(C)(C)NC(=O)[C@H](Cc3ccccc3)NC2=O)cc1` [B, [1-(β,β-cyclopentamethylene-β-mercaptopropionic acid)-2-(O-ethyl-D-tyrosine)-4-α-aminoisobutyric acid-8-arginine-9-desglycine]vasopressin] ([dY](Et)F[Aib]NCPR-NH2; linker N-5 via X1), the Ki at V2-vasopressin receptors [1] worked out at 140 nM. For the same compound, at V2-vasopressin receptors [2], the Kb was determined as 580 nM.

For the compound `CCOc1ccc(C[C@H]2NC(=O)CC3(CCCCC3)SSC[C@@H](C(=O)NC(C)(C)C(=O)N[C@@H](CCCNC(=N)N)C(=O)NCC(N)=O)NC(=O)[C@H](CC(N)=O)NC(=O)[C@H](C(C)C)NC(=O)[C@H](Cc3ccccc3)NC2=O)cc1` [A, [1-(β,β-cyclopentamethylene-β-mercaptopropionic acid)-2-(O-ethyl-D-tyrosine)-4-valine-7-α-aminoisobutyric acid-8-arginine]vasopressin] ([dY](Et)FVNC[Aib]RG-NH2; linker N-5 via X1), the Ki at V2-vasopressin receptors [1] amounted to 18 nM. In addition, the Kb on V2-vasopressin receptors [2] is 9.2 nM.

Consider `CCOc1ccc(C[C@H]2NC(=O)CC3(CCCCC3)SSC[C@@H](C(=O)N3CCC[C@H]3C(=O)N[C@@H](CCCNC(=N)N)C(=O)NCC(N)=O)NC(=O)[C@H](CC(N)=O)NC(=O)[C@](C)(C(C)C)NC(=O)[C@H](Cc3ccccc3)NC2=O)cc1` [C, [1-(β,β-cyclopentamethylene-β-mercaptopropionic acid)-2-(O-ethyl-D-tyrosine)-4-α-methylvaline-8-arginine]vasopressin] ([dY](Et)F[αMeV]NCPRG-NH2; linker N-5 via X1), for which, on V2-vasopressin receptors [1], the Ki came out at 31 nM. Also, at V2-vasopressin receptors [2], the Kb was 11 nM.

As to `CCOc1ccc(C[C@H]2NC(=O)CC3(CCCCC3)SSC[C@@H](C(=O)N3CCC[C@H]3C(=O)N[C@@H](CCCN=C(N)N)C(=O)NCC(N)=O)NC(=O)[C@H](CC(N)=O)NC(=O)[C@H](C(C)C)NC(=O)[C@H](Cc3ccccc3)NC2=O)cc1` [G, [1-(β,β-cyclopentamethylene-β-mercaptopropionic acid)-2-(O-ethyl-D-tyrosine)-4-valine-8-arginine]vasopressin, reference compound] ([dY](Et)FVNCPRG-NH2; linker N-5 via X1), the Kb on V2-vasopressin receptors [2] came to 6.7 nM; on V1-vasopressin receptors it was 1.4 nM.

For `COc1ccc(C[C@@H]2NC(=O)CC3(CCCCC3)SSC[C@@H](C(=O)N3CCC[C@H]3C(=O)N[C@@H](CCCNC(=N)N)C(=O)NCC(N)=O)NC(=O)[C@H](CC(N)=O)NC(=O)[C@](C)(C(C)C)NC(=O)[C@H](Cc3ccccc3)NC2=O)cc1` [D, [1-(β,β-cyclopentamethylene-β-mercaptopropionic acid)-2-(O-methyl L-tyrosine)-4-α-methylvaline-8-arginine]vasopressin] (Y(Me)F[αMeV]NCPRG-NH2; linker N-5 via X1), the Ki at V2-vasopressin receptors [1] was 490 nM. The Kb on V2-vasopressin receptors [2] was 170 nM; at V1-vasopressin receptors it was 18 nM.

As to `COc1ccc(C[C@@H]2NC(=O)CC3(CCCCC3)SSC[C@@H](C(=O)N3CCC[C@H]3C(=O)N[C@@H](CCCN=C(N)N)C(=O)NCC(N)=O)NC(=O)[C@H](CC(N)=O)NC(=O)[C@H](C(C)C)NC(=O)[C@H](Cc3ccccc3)NC2=O)cc1` [F, [1-(β,β-cyclopentamethylene-β-mercaptopropionic acid)-2-(O-methyl-L-tyrosine)-4-valine-8-arginine]vasopressin, reference compound] (Y(Me)FVNCPRG-NH2; linker N-5 via X1), at V2-vasopressin receptors [1], the Ki was 88 nM. Besides, the Kb came out at 35 nM at V2-vasopressin receptors [2] and 12 nM at V1-vasopressin receptors.

`CCOc1ccc(C[C@H]2NC(=O)CC3(CCCCC3)SSC[C@@H](C(=O)NC(C)(C)C(=O)N[C@@H](CCCNC(=N)N)C(N)=O)NC(=O)[C@H](CC(N)=O)NC(=O)[C@H](C(C)C)NC(=O)[C@H](Cc3ccccc3)NC2=O)cc1` [E, [1-(β,β-cyclopentamethylene-β-mercaptopropionic acid)-2-(O-ethyl-D-tyrosine)-4-valine-7-α-aminoisobutyric acid-8-arginine-9-desglycine]vasopressin] ([dY](Et)FVNC[Aib]R-NH2; linker N-5 via X1): the Ki at V2-vasopressin receptors [1] was found to be 16 nM. Besides, the Kb on V2-vasopressin receptors [2] came to 15 nM.
